Source: article PMC3705364, “Biochemical and Electrophysiological Characterization of Two Sea Anemone Type 1 Potassium Toxins from a Geographically Distant Population of Bunodosoma caissarum” (Marine Drugs, 2013)
Entries after “also recorded” stand apart in the source; their conditions may differ. Where a SMILES comes first, the peptide text is derived from it. Bridges are numbered along the chain shown (N, C = ends).

Legend:
Shaker IR = molecular target: T1, Shaker IR (Drosophila melanogaster, UniProt P08510, DEL6-46); experiment: Current-voltage (I-V) experiments, voltage dependence and reversibility on Shaker IR; format: cell-based, insect
T1 construct: expressed in transfected cells; host or cells: Xenopus laevis oocytes injected with cRNA
T1 sequence (P08510 with tags, fused parts or gaps DEL6-46): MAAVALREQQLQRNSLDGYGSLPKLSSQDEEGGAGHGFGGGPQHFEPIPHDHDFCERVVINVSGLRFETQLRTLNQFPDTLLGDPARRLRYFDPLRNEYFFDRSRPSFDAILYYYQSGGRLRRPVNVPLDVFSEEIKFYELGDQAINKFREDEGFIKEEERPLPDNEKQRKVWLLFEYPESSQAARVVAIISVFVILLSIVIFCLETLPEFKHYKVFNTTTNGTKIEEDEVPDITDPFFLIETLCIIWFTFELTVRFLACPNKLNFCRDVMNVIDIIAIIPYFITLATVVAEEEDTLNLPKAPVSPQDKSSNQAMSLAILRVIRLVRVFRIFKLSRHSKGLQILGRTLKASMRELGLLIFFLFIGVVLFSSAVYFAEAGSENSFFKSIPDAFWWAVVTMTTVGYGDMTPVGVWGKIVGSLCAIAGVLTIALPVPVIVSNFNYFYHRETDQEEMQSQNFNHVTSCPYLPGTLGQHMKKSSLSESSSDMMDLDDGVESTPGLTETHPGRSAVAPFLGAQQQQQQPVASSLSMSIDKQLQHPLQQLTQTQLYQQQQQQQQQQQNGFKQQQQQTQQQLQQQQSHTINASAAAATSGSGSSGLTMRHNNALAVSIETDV
Description: In order to elucidate whether BcsTx-1 and -2 block the current through a physical obstruction of the Shaker IR channel pore or act as gating modifiers, current-voltage (I-V) experiments were performed. The currents were inhibited at the test potentials from −90 to 100 mV, and the inhibition was not associated with a change of the shape of the I-V relationship. The control curve and the curve in the presence of BcsTx1 (500 nM) were characterized by a V1/2 values of 20.85 ± 0.69 mV and 22.62 ± 0.73 mV, respectively. Moreover, the control curve and the curve in the presence of BcsTx2 (50 nM) were characterized by a V1/2 values of 18.49 ± 1.49 mV and 23.88 ± 1.57 mV, respectively. […] To date, type 1 sea anemone toxins have been described to act solely through a KV channel pore-blocking mechanism.
Figure 8 Functional features of BcsTx1 and BcsTx2 on KV channels. (A, B) Dose-response curves of BcsTx1 and BcsTx2 on rKV1.1, rKV1.2, hKV1.3, rKV1.6 and Shaker IR channels. The curves were obtained by plotting the percentage blocked current as a function of increasing toxin concentrations. All data are presented as the mean ± standard error (n ≥ 3). (C, D) Current-voltage relationship for Shaker IR isoform in control condition and in the presence of BcsTx1 (500 nM) and BcsTx2 (50 nM). Current traces were evoked by 10 mV depolarization steps from a holding potential of −90 mV. Open circles indicates the V1/2 in control; closed circles indicate the addition of toxins. (E, F) Percentage of currents left after application of BcsTx1 (500 nM) and BcsTx2 (50 nM) on Shaker IR channel. […] (G, H) Representative experiment of the time course of Shaker IR current inhibition with BcsTx1 (500 nM) and BcsTx2 (3000 nM) and the reversibility hereof. Control (open square); washout (open circles). […] Plots shown are a representative of at least three individual experiments.
Stage V–VI of X. laevis oocytes were harvested by partial ovariectomy under anesthesia (3-aminobenzoic acid ethyl ester methanesulfonate salt, 0.5 g/L from Sigma-Aldrich Co., Saint Louis, MO, USA). The oocytes were defolliculated for 2 h by treatment with 2 mg/mL collagenase (Sigma-Aldrich Co., Saint Louis, MO, USA) in Ca^2+ free ND96 solution (in mM: 96 NaCl; 2 KCl; 1 MgCl2; 5 HEPES adjusted pH 7.4). […]
Two-electrode voltage-clamp recordings were performed at room temperature (18–22 °C) using a Geneclamp 500 amplifier (Molecular Devices, Sunnyvale, CA, USA) controlled by a pClamp data acquisition system (Axon Instruments, Union City, CA, USA). Whole-cell currents from oocytes were recorded from 1 to 3 days after injection. […]

rKV1.2 = molecular target: T2, rKV1.2 (Rattus norvegicus, UniProt P63142); experiment: Two-electrode voltage-clamp, X. laevis oocytes expressing rKV1.2; format: cell-based
T2 construct: expressed in transfected cells; host or cells: Xenopus laevis oocytes injected with cRNA
T2 sequence (P63142 whole entry): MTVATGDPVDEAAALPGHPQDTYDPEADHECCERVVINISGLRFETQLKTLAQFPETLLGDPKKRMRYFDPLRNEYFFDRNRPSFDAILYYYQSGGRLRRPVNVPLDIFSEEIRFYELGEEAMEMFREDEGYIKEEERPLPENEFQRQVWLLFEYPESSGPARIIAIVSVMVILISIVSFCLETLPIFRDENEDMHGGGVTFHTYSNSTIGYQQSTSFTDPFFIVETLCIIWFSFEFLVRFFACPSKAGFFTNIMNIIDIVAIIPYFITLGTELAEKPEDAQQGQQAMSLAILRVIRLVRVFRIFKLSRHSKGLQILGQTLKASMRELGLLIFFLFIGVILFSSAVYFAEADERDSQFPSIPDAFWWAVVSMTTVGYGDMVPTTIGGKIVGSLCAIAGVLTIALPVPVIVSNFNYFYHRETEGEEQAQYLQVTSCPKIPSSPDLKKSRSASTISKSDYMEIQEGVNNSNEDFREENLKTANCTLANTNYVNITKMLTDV
Description: Stage V–VI of X. laevis oocytes were harvested by partial ovariectomy under anesthesia (3-aminobenzoic acid ethyl ester methanesulfonate salt, 0.5 g/L from Sigma-Aldrich Co., Saint Louis, MO, USA). The oocytes were defolliculated for 2 h by treatment with 2 mg/mL collagenase (Sigma-Aldrich Co., Saint Louis, MO, USA) in Ca^2+ free ND96 solution (in mM: 96 NaCl; 2 KCl; 1 MgCl2; 5 HEPES adjusted pH 7.4). For the expression of KV channels (KV1.1–KV1.6, KV2.1, KV3.1, KV4.2, KV4.3, hERG and the insect channel Shaker IR), the linearized plasmids were transcribed using the T7 or SP6 mMessage-mMachine transcription kit (Ambion, Austin, TX, USA). Oocytes were injected with 50 nL of cRNA at a concentration of 1 ng/nL using a microinjector (Drummond Scientific, Broomall, PA, USA). The oocytes were maintained in a ND96 solution (in mM: 96 NaCl, 2 KCl, 1.8 CaCl2, 2 MgCl2 and 5 HEPES; adjusted pH 7.4), supplemented with 50 µg/mL gentamicin sulfate.
Two-electrode voltage-clamp recordings were performed at room temperature (18–22 °C) using a Geneclamp 500 amplifier (Molecular Devices, Sunnyvale, CA, USA) controlled by a pClamp data acquisition system (Axon Instruments, Union City, CA, USA). Whole-cell currents from oocytes were recorded from 1 to 3 days after injection. Bath solution was the same ND96 solution described above. Voltage and current electrodes were filled with 3 M KCl. Resistances of both electrodes were kept between 0.8 and 1.0 ΩM. The elicited currents were filtered at 500 Hz using a four-pole lowpass Bessel filter. Leak subtraction was performed using a −P/4 protocol. KV1.1–KV1.6 and Shaker IR currents were evoked by 500 ms depolarizations to 0 mV, followed by a 500 ms pulse to −50 mV, from a holding potential of −90 mV. Current traces of hERG channels were elicited by applying a +40 mV prepulse for 2 s, followed by a step to −120 mV for 2 s. KV3.1, KV 4.2 and KV4.3 currents were elicited by 500 ms pulses to +20 mV from a holding potential of −90 mV. To assess the concentration-response relationships, data were fitted with the Hill equation: y = 100/[1 + (EC50/[toxin])h] (1) where y is the amplitude of the toxin-induced effect, EC50 is the toxin concentration at half maximal efficacy, [toxin] is the toxin concentration and h is the Hill coefficient. In order to investigate the current-voltage relationship, current traces were evoked by 10 mV depolarization steps from a holding potential of −90 mV. […]
Comparison of two sample means was made using a paired Student’s t test (p < 0.05). […] All data were analyzed using Clampfit 10.3 (Molecular Devices, Sunnyvale, CA, USA) and Origin 7.5 software (Origin Lab., Northampton, MA, USA).

CC(C)C[C@@H]1NC(=O)[C@H](CCCCN)NC(=O)[C@H](C)NC(=O)[C@H](Cc2c[nH]cn2)NC(=O)[C@H](CCC(N)=O)NC(=O)[C@@H]2CSSC[C@@H]3NC(=O)[C@H](CC(N)=O)NC(=O)[C@H](C)NC(=O)[C@H](CCCNC(=N)N)NC(=O)[C@H](Cc4ccc(O)cc4)NC(=O)[C@H](CCCCN)NC(=O)[C@H](CCC(N)=O)NC(=O)[C@H](CO)NC(=O)[C@H](CC(N)=O)NC(=O)[C@H](CCCCN)NC(=O)[C@H](CSSC[C@H](NC(=O)[C@H]([C@@H](C)O)NC(=O)[C@H](CCCCN)NC(=O)[C@H](C)NC3=O)C(=O)NCC(=O)N3CCC[C@H]3C(=O)N[C@H](C(=O)O)CSSC[C@H](NC(=O)[C@H](C)N)C(=O)N[C@@H](CCCCN)C(=O)N[C@@H](CC(=O)O)C(=O)NCC(=O)N[C@@H](Cc3ccccc3)C(=O)N3CCC[C@H]3C(=O)N[C@@H]([C@@H](C)O)C(=O)N[C@@H](C)C(=O)N[C@@H]([C@@H](C)O)C(=O)N2)NC(=O)[C@H](CC(N)=O)NC(=O)CNC(=O)[C@H](C(C)C)NC1=O [BcsTx2] (H-ACKDGFPTATCQHAKLVGNCKNSQKYRANCAKTCGPC-OH; disulfide 2-37, 11-30, 20-34; C-terminus assumed)
reversibility of blockage upon washout (in words) (Shaker IR; Shaker IR, BcsTx1 500 nM, BcsTx2 3000 nM, washout): reversible, and a complete recovery was observed after washout; also recorded: binding was reversible upon washout
onset of blockage (in words) (Shaker IR; Shaker IR, time course, BcsTx1 500 nM, BcsTx2 3000 nM): Blockage occurred rapidly
voltage dependence of blockage (in words) (Shaker IR; Shaker IR, −10 mV to 50 mV, BcsTx1 500 nM, BcsTx2 50 nM): non-dependence of voltage for the blockage; also recorded: no difference was observed in the degree of BcsTx1- and BcsTx2-induced blockage
V1/2 of activation, Shaker IR (Shaker IR; in presence of 50 nM toxin, control 18.49 ± 1.49 mV, Boltzmann fit): 23.88 ± 1.57 mV
inhibition at 3 µM (rKV1.2; 3 µM, n ≥ 3, read-out: inhibition of rKV1.2 current): 100%
IC50 (rKV1.2; TEVC, 18–22 °C, ND96 pH 7.4, 500 ms depolarizations to 0 mV from −90 mV, Hill fit, mean ± standard error, n ≥ 3): 80.4 ± 1.44 nM
